How the values were obtained:
[1] = molecular target: T1, system Xc^− (Homo sapiens, UniProt Q9UPY5); test: Cystine-induced glutamate release assay; type: cell-based; set-up: endogenous in cells; host or cells: H4 cells; conditions: H4 cells, sodium-free HEPES buffer, 50 μM L-Cystine, 2 hours, Amplex Red glutamate readout; read-out: pIC50 Cystine-induced glutamate release assay (converted)
T1 sequence (Q9UPY5 1-501): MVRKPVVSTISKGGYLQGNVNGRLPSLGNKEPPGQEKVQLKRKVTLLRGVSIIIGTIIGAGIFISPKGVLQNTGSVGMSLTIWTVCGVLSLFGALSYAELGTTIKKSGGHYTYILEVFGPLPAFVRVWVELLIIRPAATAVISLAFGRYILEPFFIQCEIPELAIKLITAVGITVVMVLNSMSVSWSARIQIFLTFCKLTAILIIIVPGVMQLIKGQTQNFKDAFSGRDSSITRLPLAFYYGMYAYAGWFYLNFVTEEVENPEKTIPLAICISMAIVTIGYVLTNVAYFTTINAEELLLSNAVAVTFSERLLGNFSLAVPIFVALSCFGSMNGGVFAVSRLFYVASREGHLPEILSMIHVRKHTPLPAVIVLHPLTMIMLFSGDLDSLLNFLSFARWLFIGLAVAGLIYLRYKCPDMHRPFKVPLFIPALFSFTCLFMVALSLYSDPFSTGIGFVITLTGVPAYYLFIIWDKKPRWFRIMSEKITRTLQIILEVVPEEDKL
T1 sequence (P08195 1-529 partner): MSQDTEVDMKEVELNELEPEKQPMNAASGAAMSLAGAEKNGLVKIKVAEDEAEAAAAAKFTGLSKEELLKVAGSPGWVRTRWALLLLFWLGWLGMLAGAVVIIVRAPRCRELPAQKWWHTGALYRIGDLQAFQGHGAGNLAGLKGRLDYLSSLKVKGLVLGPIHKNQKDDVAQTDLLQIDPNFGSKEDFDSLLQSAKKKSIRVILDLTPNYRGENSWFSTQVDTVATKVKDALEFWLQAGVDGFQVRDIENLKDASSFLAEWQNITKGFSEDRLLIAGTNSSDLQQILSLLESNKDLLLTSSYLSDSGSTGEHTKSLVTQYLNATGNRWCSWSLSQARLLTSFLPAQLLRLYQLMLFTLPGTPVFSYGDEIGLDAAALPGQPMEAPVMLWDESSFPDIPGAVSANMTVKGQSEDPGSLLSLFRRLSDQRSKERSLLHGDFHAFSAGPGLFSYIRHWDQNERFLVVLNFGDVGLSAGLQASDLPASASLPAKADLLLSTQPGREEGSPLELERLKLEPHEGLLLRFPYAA
Outline: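 H4 cells in sodium-free HEPES buffer (pH 7.4), 2 days after plating; glutamate release induced with 50 μM L-cystine plus compound (1% DMSO), 2 h at 37 °C. Supernatant glutamate measured by Amplex Red fluorescence; IC50/pIC50 derived between 1% DMSO and 50 μM erastin controls.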

[2] = molecular target: T1, system Xc^−; test: [^14C]L-Cystine uptake assay; type: cell-based; set-up: endogenous in cells; host or cells: H4 cells; conditions: H4 cells, sodium-free HEPES buffer, 0.5 μM L-[14C]Cystine and 4.5 μM L-Cystine, 1 hour at 37° C.; read-out: pIC50 [^14C] L-Cystine uptake assay (converted)
Outline: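 H4 cells at 5×10^4 cells/well in sodium-free HEPES buffer were preincubated 15 min with compounds (1% DMSO). Uptake of 0.5 μM [14C]L-cystine plus 4.5 μM unlabelled L-cystine ran 1 hour at 37° C on scintillating plates. IC50 was set between 1% DMSO and 50 μM Erastin controls and expressed as pIC50.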

SMILES | IC50 [1] | IC50 [2]
COc1nc(C)cc2c1-c1cccnc1CC(=O)N2CC(=O)Nc1ccc(C(F)F)cc1 [#83, N-[4-(difluoromethyl)-phenyl]-2-(3-methoxy-5-methyl-9-oxo-4,8,12-triazatricyclo[9.4.0.0^2,7]pentadeca-1(11),2,4,6, 12,14-hexaen-8-yl)acet-amide] | < 15.8 nM | < 15.8 nM
Cc1cc2c(c(F)n1)-c1cccnc1C(C)C(=O)N2CC(=O)Nc1ccc(C(F)(F)F)cc1 (stereo not drawn) [#84, 2-(3-fluoro-5,10-dimethyl-9-oxo-4,8,12-triazatricyclo[9.4.0.0^2,7]pentadeca-1(11),2(7),3,5,12,14-hexaen-8-yl)-N-[4-(trifluoromethyl)phenyl]acetamide] | 15.8 to 39.8 nM | < 15.8 nM
Cc1cc2c(c(F)n1)-c1ccc(Cl)cc1CC(=O)N2CC(=O)Nc1ccc(C(F)(F)F)cc1 [#85, 2-(9-chloro-1-fluoro-3-methyl-6-oxo-7H-pyrido[4,3-d][3]benzazepin-5-yl)-N-[4-(trifluoromethyl)phenyl]acetamide] | 39.8 to 100 nM | 100 to 501 nM
Cc1cc2c(c(F)n1)-c1ccc(F)cc1CC(=O)N2CC(=O)Nc1ccc(C(F)(F)F)cc1 [#86, 2-(1,9-difluoro-3-methyl-6-oxo-7H-pyrido[4,3-d][3]benzazepin-5-yl)-N-[4-(trifluoromethyl)phenyl]acetamide] | 39.8 to 100 nM | 15.8 to 39.8 nM
Cc1cc2c(c(F)n1)-c1c(F)cccc1CC(=O)N2CC(=O)Nc1ccc(C(F)(F)F)cc1 [#87, 2-(1,11-difluoro-3-methyl-6-oxo-7H-pyrido[4,3-d][3]benzazepin-5-yl)-N-[4-(trifluoromethyl)phenyl]acetamide] | 100 to 501 nM | 39.8 to 100 nM
Cc1cc2c(c(F)n1)-c1cccc(C#N)c1CC(=O)N2CC(=O)Nc1ccc(C(F)(F)F)cc1 [#88, 2-(8-cyano-1-fluoro-3-methyl-6-oxo-7H-pyrido[4,3-d][3]benzazepin-5-yl)-N-[4-(trifluoromethyl)phenyl]acetamide] | 39.8 to 100 nM | 39.8 to 100 nM
Cc1cc2c(c(F)n1)-c1cccnc1C(C)(F)C(=O)N2CC(=O)Nc1ccc(C(F)(F)F)cc1 (stereo not drawn) [#89, 2-(3,10-difluoro-5,10-dimethyl-9-oxo-4,8,12-triazatricyclo[9.4.0.0^2,7]pentadeca-1(11),2(7),3,5,12,14-hexaen-8-yl)-N-[4-(trifluoromethyl)phenyl]acetamide] | 39.8 to 100 nM | 100 to 501 nM
Cc1cc2c(c(F)n1)-c1cccnc1C(C)C(=O)N2CC(=O)Nc1ccc(Cl)c(F)c1 (stereo not drawn) [#90, N-(4-chloro-3-fluoro-phenyl)-2-(3-fluoro-5,10-dimethyl-9-oxo-4,8,12-triazatricyclo[9.4.0.0^2,7]pentadeca-1(11),2(7),3,5,12,14-hexaen-8-yl)acetamide] | 15.8 to 39.8 nM | < 15.8 nM
Cc1cc2c(cn1)-c1cccnc1C(C)C(=O)N2CC(=O)Nc1ccc(C(F)(F)F)cc1 (stereo not drawn) [#91, 2-(5,10-dimethyl-9-oxo-4,8,12-triazatricyclo[9.4.0.0^2,7]pentadeca-1(11),2(7),3,5,12,14-hexaen-8-yl)-N-[4-(trifluoromethyl)phenyl]acetamide] | 39.8 to 100 nM | 15.8 to 39.8 nM
[2H]C([2H])([2H])C1C(=O)N(CC(=O)Nc2ccc(C(F)(F)F)cc2)c2cc(C)nc(F)c2-c2cccnc21 (stereo not drawn) [#92, 2-[3-fluoro-5-methyl-9-oxo-10-(trideuteriomethyl)-4,8,12-triazatricyclo[9.4.0.0^2,7]pentadeca-1(15),2(7),3,5,11,13-hexaen-8-yl]-N-[4-(trifluoromethyl)phenyl]acetamide] | 39.8 to 100 nM | < 15.8 nM
Cc1cc2c(c(F)n1)-c1ccc(C)nc1C(C)C(=O)N2CC(=O)Nc1ccc(C(F)(F)F)cc1 (stereo not drawn) [#93, 2-(3-fluoro-5,10,13-trimethyl-9-oxo-4,8,12-triazatricyclo[9.4.0.0^2,7]pentadeca-1(11),2(7),3,5,12,14-hexaen-8-yl)-N-[4-(trifluoromethyl)phenyl]acetamide] | 39.8 to 100 nM | 15.8 to 39.8 nM
Cc1cc2c(c(F)n1)-c1cccnc1C(O)C(=O)N2CC(=O)Nc1ccc(C(F)(F)F)cc1 (stereo not drawn) [#94, 2-(3-fluoro-10-hydroxy-5-methyl-9-oxo-4,8,12-triazatricyclo[9.4.0.0^2,7]pentadeca-1(15),2(7),3,5,11,13-hexaen-8-yl)-N-[4-(trifluoromethyl)phenyl]acetamide] | 39.8 to 100 nM | 39.8 to 100 nM
Cc1cc2c(c(F)n1)-c1ccccc1C(O)C(=O)N2CC(=O)Nc1ccc(C(F)(F)F)cc1 (stereo not drawn) [#95, 2-(1-fluoro-7-hydroxy-3-methyl-6-oxo-7H-pyrido[4,3-d][3]benzazepin-5-yl)-N-[4-(trifluoromethyl)phenyl]acetamide] | 15.8 to 39.8 nM | 39.8 to 100 nM
COc1nc(C)cc2c1-c1cccnc1C(O)C(=O)N2CC(=O)Nc1ccc(C(F)(F)F)cc1 (stereo not drawn) [#96, 2-(10-hydroxy-3-methoxy-5-methyl-9-oxo-4,8,12-triazatricyclo[9.4.0.0^2,7]pentadeca-1(11),2,4,6,12,14-hexaen-8-yl)-N-[4-(trifluoromethyl)phenyl]acetamide] | 15.8 to 39.8 nM | 15.8 to 39.8 nM
Cc1cc2c(c(Cl)n1)-c1cccnc1CC(=O)N2CC(=O)Nc1ccc(C(F)(F)F)cc1 [#97, 2-(3-chloro-5-methyl-9-oxo-4,8,12-triazatricyclo[9.4.0.0^2,7]pentadeca-1(11),2(7),3,5,12,14-hexaen-8-yl)-N-[4-(trifluoromethyl)phenyl]acetamide] | 39.8 to 100 nM | < 15.8 nM
COc1nc(C)cc2c1-c1cncnc1CC(=O)N2CC(=O)Nc1ccc(C(F)(F)F)cc1 [#98, 2-(15-methoxy-13-methyl-9-oxo-4,6,10,14-tetrazatricyclo[9.4.0.0^2,7]pentadeca-1(15),2(7),3,5,11,13-hexaen-10-yl)-N-[4-(trifluoromethyl)phenyl]acetamide] | 39.8 to 100 nM | 15.8 to 39.8 nM
COc1nc(C)cc2c1-c1ccnn1CC(=O)N2CC(=O)Nc1ccc(C(F)(F)F)cc1 [#99, 2-(14-methoxy-12-methyl-8-oxo-5,6,9,13-tetrazatricyclo[8.4.0.0^2,6]tetradeca-1(14),2,4,10,12-pentaen-9-yl)-N-[4-(trifluoromethyl)phenyl]acetamide] | 39.8 to 100 nM | 100 to 501 nM
Cc1cc2c(c(Cl)n1)-c1ccnn1CC(=O)N2CC(=O)Nc1ccc(C(F)(F)F)cc1 [#100, 2-(14-chloro-12-methyl-8-oxo-5,6,9,13-tetrazatricyclo[8.4.0.0^2,6]tetradeca-1(14),2,4,10,12-pentaen-9-yl)-N-[4-(trifluoromethyl)phenyl]acetamide] | 39.8 to 100 nM | 39.8 to 100 nM
Cc1cc2c(c(F)n1)-c1cccnc1C(F)C(=O)N2CC(=O)Nc1ccc(C(F)(F)F)cc1 (stereo not drawn) [#101, 2-(3,10-difluoro-5-methyl-9-oxo-4,8,12-triazatricyclo[9.4.0.0^2,7]pentadeca-1(11),2(7),3,5,12,14-hexaen-8-yl)-N-[4-(trifluoromethyl)phenyl]acetamide] | 15.8 to 39.8 nM | < 15.8 nM
Cc1cc2c(c(F)n1)-c1cccc(=O)n1CC(=O)N2CC(=O)Nc1ccc(C(F)(F)F)cc1 [#102, 2-(3-fluoro-5-methyl-9,12-dioxo-4,8,11-triazatricyclo[9.4.0.0^2,7]pentadeca-1(15),2(7),3,5,13-pentaen-8-yl)-N-[4-(trifluoromethyl)phenyl]acetamide] | 100 to 501 nM | 39.8 to 100 nM
Cc1cc2c(c(N)n1)-c1cccnc1CC(=O)N2CC(=O)Nc1ccc(C(F)(F)F)cc1 [#103, 2-(3-amino-5-methyl-9-oxo-4,8,12-triazatricyclo[9.4.0.0^2,7]pentadeca-1(11),2(7),3,5,12,14-hexaen-8-yl)-N-[4-(trifluoromethyl)phenyl]acetamide] | 100 to 501 nM | 100 to 501 nM

Reference: US20260217708A1, “FUSED BENZAZEPINE DERIVATIVES FOR USE IN THE TREATMENT OF CANCER AND EPILEPSY” (UCB BIOPHARMA SRL, priority 2023, published 2026)
